Earlier results as cited in US20150335678A1, “METHOD OF ACTIVATING STEM CELLS IN AN ANIMAL AND THE USE OF CHLORINE DIOXIDE FOR PREPARING MEDICINES FOR ACTIVATING STEM CELLS IN AN ANIMAL” (priority 2012, published 2015).
Like-named read-outs stand apart in the source and are kept apart here.

Key:
[1] = test system: rat; settings: cited from earlier work
[2] = test system: mouse; settings: mouse per os; cited from earlier work

## [Na+].[O-][Cl+][O-] [NaClO2]
[1]; rat, in vivo
  accumulative toxicity classification of aqueous solution: non-obvious accumulative toxic
  toxicity classification of aqueous solution: actually non-toxic

## [Na+].[O-][Cl+2]([O-])[O-] [NaClO3]
[1]; ClO2 276.5 mg/L, NaClO2 200 mg/L, NaClO3
  accumulative toxicity classification of aqueous solution: non-obvious accumulative toxic
[1]; ClO2 276.5 mg/L, NaClO2 and NaClO3 200 mg/L, ClO2 mixed solution total concentration 553 mg/L
  toxicity classification of aqueous solution: actually non-toxic

## stable chlorine dioxide
[2]
  LD50: > 10000 mg/kg
